Results published in patent US20130287757A1, “COMPOSITION FOR THE REGENERATION OF ATROPHIC TISSUES” (MEDESTEA INTERNAZIONALE S.P.A., priority 2011, published 2013).

Tests used:
[1] = test system: biopsies from chronic atrophic ulcers (base and margins); test: Western Blot phenotypic analysis of cultured biopsies; type: cell-based, animal; set-up: key: −−− = absence of band; −/+ = slight presence of band; + = thin band present; ++ = medium band present; +++ = broad band present; ++++ = high band present; +++++ = diffuse band present; settings: 15 days culture
Method: The animal biopsy samples investigated are constituted of biopsies from chronic atrophic ulcers (base and margins). The biopsies were then sectioned into twelve parts ([…] controls, 1-11, and one sample, 12, to be treated for each patient) and suspended in a final volume of 25 ml of the respective culture solutions in plates (Lab-Tek chamber slides, Nunc, Kamstrup, Denmark) of 10 cm. Eleven types of control were prepared: • a negative control, untreated (1), i.e. treated exclusively with saline and antibiotics (as described above); • a positive control treated (2) with cell culture media commonly used for skin biopsies; • a control-3 treated with DMEM-LG/F 12 (1:1) culture medium and with the active ingredient described in Table 4. • a control-4 treated with DMEM-LG/F 12 (1:1) culture medium and with the active ingredient described in Table 5. • a control-5 treated with DMEM-LG/F 12 (1:1) culture medium and with the active ingredient described in Table 6. • a control-6 treated with DMEM-LG/F 12 (1:1) culture medium and with the active ingredient described in Table 7. • a control-8 treated with DMEM-LG/F 12 (1:1) culture medium and with the active ingredient described in Table 8. • a control-9 treated with DMEM-LG/F 12 (1:1) culture medium and with the active ingredient described in Table 9. • a control-10 treated with DMEM-LG/F12 (1:1) culture medium and with the active ingredient described in Table 10. • a control-11 treated with DMEM-LG/F12 (1:1) culture medium and with the active ingredient described in Table 11. One type of sample (12th portion of each biopsy investigated) was prepared, as follows: • sample-12: the biopsy findings of sample (12) were placed in plates (Lab-Tek chamber slides, Nunc, Kamstrup, Denmark) of 10 cm in culture medium in a solution Culture medium UL-MD. […] Two thirds of the culture medium was replaced every 7 days. All biopsy tissues used in culture constitute a possible optional substrate co-conditioning for the three-dimensional growth of the cellular samples investigated. […] After five washings, the membranes were incubated with the respective secondary antibodies (1:1000) conjugated with horseradish peroxidase (HRP, Santa Cruz, Calif., USA) for 1 h at room temperature, as shown below in Table 12.

[2] = test system: biopsies from chronic atrophic ulcers (base and margins); test: FACS of cell suspensions from cultured biopsies; type: cell-based, animal; settings: for CK-1, FACS absolute value / CK-5, FACS absolute value / CK-10, FACS absolute value / CK-14, FACS absolute value / Collagen type I, FACS absolute value / Collagen type IV, FACS absolute value: geometric mean +/− Standard Deviation; for CK-1, FACS fluorescence as percentage value / CK-5, FACS fluorescence as percentage value / CK-10, FACS fluorescence as percentage value / CK-14, FACS fluorescence as percentage value / Collagen type I, FACS fluorescence as percentage value / Collagen type IV, FACS fluorescence as percentage value: relative to the isotypes, nonspecific fluorescence deducted
Method: The animal biopsy samples investigated are constituted of biopsies from chronic atrophic ulcers (base and margins).
The biopsies were then sectioned into twelve parts ([…] controls, 1-11, and one sample, 12, to be treated for each patient) and suspended in a final volume of 25 ml of the respective culture solutions in plates (Lab-Tek chamber slides, Nunc, Kamstrup, Denmark) of 10 cm.
One type of sample (12th portion of each biopsy investigated) was prepared, as follows: • sample-12: the biopsy findings of sample (12) were placed in plates (Lab-Tek chamber slides, Nunc, Kamstrup, Denmark) of 10 cm in culture medium in a solution Culture medium UL-MD.
All the findings were incubated for 15 days in a Heraeus incubator thermostatically controlled to a temperature of 37° C. with an atmosphere containing 5% of constant supply of CO2 (v/v in air). Two thirds of the culture medium was replaced every 7 days. All biopsy tissues used in culture constitute a possible optional substrate co-conditioning for the three-dimensional growth of the cellular samples investigated.
Cellular suspensions obtained after digestion with collagenase were transferred to 15-ml test tubes (Nunc, Kamstrup, Denmark) and fixed in 4% paraformaldehyde solution for 30 minutes at room temperature. After three washings with PBS (pH 7.4), the cells were permeabilized with Triton 0.1% for 15 minutes, […] at room temperature. The pellets of the samples (Sample, 12) and of the controls (CTRLs, 1-11) were resuspended to a final concentration of 5×10^5 cells/ml in PBS and incubated with the following primary antibodies (ABD serotec, Kidlington-Oxford, UK): anti-collagen type I, anti-collagen type anti-IV and anti-cytokeratins (CK)-1, -5, -10, -14. All monoclonal antibodies conjugated with R-phycoerythrin (PE) or fluorescein isothiocyanate (FITC) were used. Specific controls with the corresponding isotypes were divided for each monoclonal antibody (ABD serotec). The samples were submitted to quantitative analysis by a laser cytofluorometer (Epics profile II, Coulter, Hialeath, FL) at 488 nm, where the percentage of fluorescent cells (PFC) reflects the geometric mean of the field of interest. The threshold values (gates) were established using control samples labelled with the corresponding isotype. All the values were analysed with a minimum threshold of 15 000 cells.
The results relating to the expression of collagen type I, collagen type IV and of cytokeratins (CK) 1, 5, 10 and 14 were expressed with a quantitative scale relative to the fluorescence expressed as a percentage value relative to the isotypes, after deducting the assumed nonspecific fluorescence (specific gate), as follows: […]

Row | Molecule | CK-1 expression, Western Blot band [1] | CK-5 expression, Western Blot band [1] | CK-10 expression, Western Blot band [1] | CK-14 expression, Western Blot band [1] | Collagen type I expression, Western Blot band [1] | Collagen type IV expression, Western Blot band [1] | CK-1, FACS absolute value [2] | CK-5, FACS absolute value [2] | CK-10, FACS absolute value [2] | CK-14, FACS absolute value [2] | Collagen type I, FACS absolute value [2] | Collagen type IV, FACS absolute value [2] | CK-1, FACS fluorescence as percentage value [2] [%] | CK-5, FACS fluorescence as percentage value [2] [%] | CK-10, FACS fluorescence as percentage value [2] [%] | CK-14, FACS fluorescence as percentage value [2] [%] | Collagen type I, FACS fluorescence as percentage value [2] [%] | Collagen type IV, FACS fluorescence as percentage value [2] [%]
1 | CC1(C)[C@@H](O)CC[C@]2(C)[C@H]3C(=O)C=C4[C@@H]5C[C@@](C)(C(=O)O)CC[C@]5(C)CC[C@@]4(C)[C@]3(C)CC[C@@H]12 [CTRL 8, Glycyrrhetic acid] | −/+ | −/+ | + | −/+ | −/+ | −/+ | 5 +/− 3 | 3 +/− 1 | 4 +/− 1 | 2 +/− 1 | 6 +/− 4 | 7 +/− 5 | 1 | 1 | 0.5 | 0.1 | 0.9 | 0.9
2 | O=C(O)c1ccccc1O [CTRL 4, Salicylic acid] | ++ |  | + | + | + |  | 29 +/− 7 | 6 +/− 5 | 9 +/− 7 | 11 +/− 8 | 12 +/− 3 | 9 +/− 8 | 14 | 0 | 1.9 | 1.25 | 3.9 | 0.3
3 | [O]=[Zn] [CTRL 6, Zinc oxide powder] | + |  |  | + |  | + | 14 +/− 11 | 2 +/− 2 | 1 +/− 1 | 10 +/− 7 | 3 +/− 2 | 12 +/− 8 | 3 | 0 | 0 | 1.7 | 0.3 | 1.5
4 | Papain FU (protein, UniProt P00784 134-345, looked up) Papain: IPEYVDWRQKGAVTPVKNQGSCGSCWAFSAVVTIEGIIKIRTGNLNEYSEQELLDCDRRSYGCNGGYPWSALQLVAQYGIHYRNTYPYEGVQRYCRSREKGPYAAKTDGVRQVQPYNEGALLYSIANQPVSVVLEAAGKDFQLYRGGIFVGPCGNKVDHAVAAVGYGPNYILIKNSWGTGWGENGYIRIKRGTGNSYGVCGLYTSSFYPVKN | + | + |  | + |  |  | 11 +/− 9 | 8 +/− 5 | 1 +/− 1 | 19 +/− 14 | 5 +/− 4- | 7 +/− 6 | 2 | 1.2 | 0 | 2 | 0.5 | 0.1
